Each structure is given as a SMILES string. pIC50: −log10 of the molar value. Bounds are passed on as bounds.

One assay concerns T47D. The assay can be described thus: Potency towards T47D cell; Inactive at 1 uM. It is filed as functional.
Conditions: not given; call rule not given here
`CNC(=O)c1cccc(COc2ccc3cc(C(C(C)N(C)C)n4ccnc4)ccc3c2)c1` (stereo unspecified): the IC50 result was “Inactive at 1 uM”.

For `CC(C(c1ccc2cc(OCc3cccc(C(N)=O)c3)ccc2c1)n1ccnc1)N(C)C` (stereo unspecified), the IC50 result is given as “Inactive at 1 uM”.

With `CC(C(c1ccc2cc(OCc3cccc(C(=O)N(C)C)c3)ccc2c1)n1ccnc1)N(C)C` (stereo unspecified), the IC50 entry is on record as “Inactive at 1 uM”.

As for `CNC(=O)C(C)(C)COc1ccc2cc(C(C(C)N(C)C)n3ccnc3)ccc2c1` (stereo unspecified), the IC50 result is on record as “Inactive at 1 uM”.

The next assay has as its system T47D. The assay is described as follows: Potency towards T47D cell. Conditions: Homo sapiens. It is filed as functional, cell-based, Rattus norvegicus.
The term pIC50 denotes −log10 of the IC50, conventionally taken in molar units. Low readings indicate a large IC50, high ones a small IC50. As to `CC(C(c1ccc2cc(OCC(C)(C)C(N)=O)ccc2c1)n1ccnc1)N(C)C` (stereo unspecified), the pIC50 was 6.60.

On to `CC(C(c1ccc2cc(OCC(C)(C)C(=O)O)ccc2c1)n1ccnc1)N(C)C` (stereo unspecified), for which the pIC50 was 6.90.

On to `CC(C(c1ccc2cc(OCc3ccc(C(=O)O)cc3)ccc2c1)n1ccnc1)N(C)C` (stereo in doubt; syn), for which the pIC50 was > 7.00.

Test system in a further assay: not listed separately
The assay can be described thus: Potency towards AT 6.1 cell. It is filed as functional, Rattus norvegicus.
Conditions: not given
On to `CC(C(c1ccc2cc(OCC(C)(C)C(=O)N(C)C)ccc2c1)n1ccnc1)N(C)C` (stereo unspecified), for which the pIC50 is 6.60.

With `CC(C(c1ccc2cc(OCC(C)(C)C(=O)O)ccc2c1)n1ccnc1)N(C)C` (stereo unspecified), the negative logarithm of the IC50 (pIC50) was 6.52.

As to `CC(C(c1ccc2cc(OCc3ccc(C(=O)O)cc3)ccc2c1)n1ccnc1)N(C)C` (stereo in doubt; syn), the pIC50 is > 7.00.

On to `CNC(=O)c1cccc(COc2ccc3cc(C(C(C)N(C)C)n4ccnc4)ccc3c2)c1` (stereo unspecified), for which the pIC50 was 6.60.

A further assay deals with T1, Cytochrome P450 26A1 (Homo sapiens, UniProt O43174).
T1 sequence (O43174 whole entry): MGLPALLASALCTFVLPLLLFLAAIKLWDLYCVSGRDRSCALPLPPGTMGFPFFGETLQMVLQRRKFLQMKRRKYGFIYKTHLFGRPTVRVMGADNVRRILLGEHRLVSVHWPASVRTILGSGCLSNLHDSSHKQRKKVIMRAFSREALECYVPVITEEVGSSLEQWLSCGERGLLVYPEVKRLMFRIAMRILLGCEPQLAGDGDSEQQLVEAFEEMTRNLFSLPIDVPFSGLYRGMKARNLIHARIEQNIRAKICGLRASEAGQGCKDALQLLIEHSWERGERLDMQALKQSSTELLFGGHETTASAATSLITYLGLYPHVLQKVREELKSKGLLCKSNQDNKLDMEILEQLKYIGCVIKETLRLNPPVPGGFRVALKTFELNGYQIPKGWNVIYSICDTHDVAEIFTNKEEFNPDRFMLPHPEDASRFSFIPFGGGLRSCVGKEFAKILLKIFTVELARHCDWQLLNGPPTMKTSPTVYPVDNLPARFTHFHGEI
The assay is described as follows: Potency towards cytochrome P 450 26 enzyme activity.
Conditions: not given
For the molecule `COC(=O)c1ccc(COc2ccc3cc(C(C(C)N(C)C)n4ccnc4)ccc3c2)cc1` (stereo in doubt; syn), the pIC50 was 7.80.

Molecule `CC(C(c1ccc2cc(OCc3ccc(OCC(=O)O)cc3)ccc2c1)n1ccnc1)N(C)C` (stereo unspecified) gave a pIC50 of 8.10.

As for `CC(C(c1ccc2cc(OCc3ccc(CC(=O)O)cc3)ccc2c1)n1ccnc1)N(C)C` (stereo unspecified), the pIC50 was 7.60.

For `CC(C(c1ccc2cc(OCC(C)(C)C(N)=O)ccc2c1)n1ccnc1)N(C)C` (stereo unspecified), the negative-log IC50 (pIC50) was 7.33.

In turn, `CC(C(c1ccc2cc(OCc3ccc(C#N)cc3)ccc2c1)n1ccnc1)N(C)C` (stereo in doubt; syn) showed a pIC50 of 8.22.

As for `COC(=O)c1cccc(COc2ccc3cc(C(C(C)N(C)C)n4ccnc4)ccc3c2)c1` (stereo in doubt; syn), the pIC50 is 8.15.

Molecule `CC(C(c1ccc2cc(OCc3ccc(OC(C)(C)C)cc3)ccc2c1)n1ccnc1)N(C)C` (stereo in doubt; anti) showed a pIC50 of 7.07.

`CC(C(c1ccc2cc(OCc3ccc(OC(C)(C)C)cc3)ccc2c1)n1ccnc1)N(C)C` (stereo in doubt; syn) had a pIC50 of 7.47.

For the molecule `COC(=O)c1ccc(COc2ccc3cc(C(C(C)N(C)C)n4ccnc4)ccc3c2)cc1` (stereo in doubt; anti), the pIC50 is 7.07.

Turning to `COC(=O)COc1ccc(COc2ccc3cc(C(C(C)N(C)C)n4ccnc4)ccc3c2)cc1` (stereo in doubt; syn), the negative-log IC50 (pIC50) is 7.72.

`CC(C(c1ccc2cc(OCc3ccc(C#N)cc3)ccc2c1)n1ccnc1)N(C)C` (stereo in doubt; anti) showed a pIC50 of 7.15.

The molecule `CC(C(c1ccc2cc(OCc3ccc(C(=O)O)cc3)ccc2c1)n1ccnc1)N(C)C` (stereo in doubt; anti) showed a pIC50 of 7.92.

Molecule `COC(=O)COc1ccc(COc2ccc3cc(C(C(C)N(C)C)n4ccnc4)ccc3c2)cc1` (stereo in doubt; anti) showed a pIC50 of 6.82.

The molecule `CC(C(c1ccc2cc(OCc3cccc(C(=O)O)c3)ccc2c1)n1ccnc1)N(C)C` (stereo in doubt; syn) gave a pIC50 of 8.46.

With `CC(C(c1ccc2cc(OCc3ccc(C(=O)O)cc3)ccc2c1)n1ccnc1)N(C)C` (stereo in doubt; syn), the pIC50 is 8.48.

In the case of `CNC(=O)c1cccc(COc2ccc3cc(C(C(C)N(C)C)n4ccnc4)ccc3c2)c1` (stereo unspecified), the pIC50 was 7.43.

The molecule `CC(C(c1ccc2cc(OCc3cccc(C(=O)O)c3)ccc2c1)n1ccnc1)N(C)C` (stereo in doubt; anti) gave a pIC50 of 8.20.

Molecule `COC(=O)c1cccc(COc2ccc3cc(C(C(C)N(C)C)n4ccnc4)ccc3c2)c1` (stereo in doubt; anti) had a pIC50 of 7.74.

Take `CC(C(c1ccc2cc(OCc3cccc(C(=O)N(C)C)c3)ccc2c1)n1ccnc1)N(C)C` (stereo unspecified): the pIC50 is 7.84.

`CC(C(c1ccc2cc(OCC(=O)O)ccc2c1)n1ccnc1)N(C)C` (stereo unspecified) had a pIC50 of 6.47.

Take `CNC(=O)C(C)(C)COc1ccc2cc(C(C(C)N(C)C)n3ccnc3)ccc2c1` (stereo unspecified): the pIC50 was 7.27.

Test system in another assay: not listed separately
The assay is described as follows: Potency towards AT 6.1 cell; Inactive at 250 nM.
Conditions: not given
It is filed as functional, Rattus norvegicus.
Take `CC(C(c1ccc2cc(OCC(C)(C)C(N)=O)ccc2c1)n1ccnc1)N(C)C` (stereo unspecified): the IC50 result is “Inactive at 250 nM”.

On to `CC(C(c1ccc2cc(OCc3cccc(C(N)=O)c3)ccc2c1)n1ccnc1)N(C)C` (stereo unspecified), for which the IC50 result is on record as “Inactive at 1 uM”.

Regarding `CNC(=O)C(C)(C)COc1ccc2cc(C(C(C)N(C)C)n3ccnc3)ccc2c1` (stereo unspecified), the IC50 entry is reported as “Inactive at 1 uM”.

The subject of a further assay is Rattus norvegicus. The assay can be described thus: Potency (30 mg/kg, bid) was determined towards AT 6.1 cell. It is filed as organism-based.
Conditions: not given
One may read the inhibition as the relative decrease from the control value, in per cent. Higher therefore signals strong suppression. Take `Clc1cccc(C(c2ccc3[nH]cnc3c2)n2ccnc2)c1` (stereo unspecified): the inhibition was found to be 90%.

The values are drawn from ChEMBL document CHEMBL1142043, “Potent and selective [2-imidazol-1-yl-2-(6-alkoxy-naphthalen-2-yl)-1-methyl-ethyl]-dimethyl-amines as retinoic acid metabolic blocking agents (RAMBAs)” (Bioorg Med Chem Lett, 2005).
